Reference: patent US20240059688A1, “CONOLIDINE ANALOGUES AS SELECTIVE ACKR3 MODULATORS FOR THE TREATMENT OF CANCER” (Luxembourg Institute of Health (LIH), priority 2020, published 2024)

Assays:
Format in all cases: cell-based
ACKR3 = ACKR3 (Homo sapiens, UniProt P25106); assay: ACKR3 β-arrestin recruitment assay (PathHunter, β-galactosidase complementation); conditions: for EC50: stable human ACKR3-β-arrestin-2-CHO cells, mean ± SEM, at least two independent experiments in duplicate; for Emax: read-out: ACKR3 β-arrestin % CXCL12 Emax ± SEM
Procedure: (§1) Compounds were evaluated for agonist activity using a β-arrestin recruitment assay based on β-galactosidase complementation (PathHunter, DiscoverX). Stable human ACKR3-β-arrestin-2-CHO cells (DiscoverX) were plated into 96-well white-walled assay plates at 15,000 cells/well in Cell Plating Reagent 2 (DiscoveRx) and incubated at 37° C., 5% CO2 overnight. The next day, test compounds were prepared at 10× concentration in DPBS/1% DMSO and 10 μL was added to the cells. CXCL-12 was included as a positive agonist control. Following a 1.5 hr incubation at 37° C., 55 μL of detection reagent (prepared according to the manufacturer's specifications) was added to each well. The plate was incubated at room temperature for 1 hr, after which luminescence was measured at 1 sec/well using an EnSpire multimode plate reader (PerkinElmer). Relative luminescence units (RLU) were plotted against the log of compound concentration and data were fit to a three-parameter logistic curve to generate EC50 values (GraphPad Prism). EC50 and % Emax values are reported as means±SEM and are the result of at least two independent experiments performed in duplicate. The CXCR4 assay was run similarly except that human CXCR4-C2Cl2 cells (DiscoverX) were plated at 20,000 cells/well in Cell Plating Reagent 9. The next day, the media was removed and cells were incubated with Cell Plating Reagent 4 for 3 hrs, after which the assay was conducted as described above.

human CXCR4 = molecular target: T1, human CXCR4 (Homo sapiens, UniProt P61073); assay: CXCR4 β-arrestin recruitment assay (PathHunter); conditions: human CXCR4-C2Cl2 cells, relative to CXCL-12
T1 construct: host or cells: C2C12
Procedure: as §1

CaV 3.2 = molecular target: T2, CaV 3.2 (Homo sapiens, UniProt O95180); assay: CaV 3.2 calcium assay in stable human CaV3.2-HEK293 cells; conditions: control agonist calcium chloride
T2 construct: expressed in transfected cells
Procedure: (§2) Compounds were evaluated for kappa (KOR), mu (MOR), and delta (DOR) opioid receptor agonist and antagonist activity in three individual cell lines overexpressing Gαq16 (CHO-RD-HGA16, Molecular Devices) and the human kappa, mu, and delta opioid receptors, respectively. The day before the assay, cells were plated into 96-well black-walled assay plates at 30,000 cells/well in Ham's F12 supplemented with 10% fetal bovine serum, and 100 units of penicillin and streptomycin. The cells were incubated overnight at 37° C., 5% CO2. Prior to the assay, Calcium 5 dye (Molecular Devices) was reconstituted according to the manufacturer's instructions. The reconstituted dye was diluted 1:40 in pre-warmed (37° C.) assay buffer (1×HBSS, 20 mM HEPES, 2.5 mM probenecid, pH 7.4 at 37° C.). Growth medium was removed and the cells were gently washed with 100 μL of pre-warmed (37° C.) assay buffer. The cells were incubated for 45 minutes at 37° C., 5% CO2 in 200 μL of the diluted Calcium 5 dye. For the agonist screen, a single concentration of each test compound and receptor-specific controls (U69,593, DAMGO, and DPDPE for KOR, MOR, and DOR, respectively) were prepared at 10× the desired final concentration in 1% DMSO/assay buffer, aliquoted into a 96-well polystyrene plate, and warmed to 37° C. After the dye-loading incubation period, pretreatment solution was added to each well (25 μL of 9% DMSO/assay buffer) and, after 15 min, the plate was read with a FlexStation II (Molecular Devices). Calcium-mediated changes in fluorescence were monitored every 1.52 seconds over a 60 second time period, with the FlexStation II adding 50 μL of test compounds at the 19 second time point (excitation at 485 nm, detection at 525 nm). Peak kinetic reduction (SoftMax, Molecular Devices) relative fluorescence units (RFU) were used to calculate % control agonist Emax with the equation % Emax=(test compound RFU/control agonist RFU)×100. For the antagonist screens, the same procedure was followed except that the pretreatment solution consisted of the test compounds (prepared at […] the desired final concentration in 9% DMSO/assay buffer) and the FlexStation added the EC60 concentration (prepared at 10× the desired final concentration in 1% DMSO/assay buffer) of each respective control agonist. Peak RFU were used to calculate % control EC60 inhibition with the equation % inhibition=((EC60 RFU−test compound RFU)/EC60 RFU)×100. When IC50 determinations were made, the same antagonist screen procedure was followed except that cells were pretreated with 8-pt concentration-response curves of the test compounds. Peak RFU were plotted against the log of compound concentration using non-linear regression analysis to generate IC50 values (GraphPad Prism). Each test sample was analyzed in duplicate in two independent experiments.
Compounds were evaluated for activity at CaV 3.2 using stable human CaV3.2-HEK293 cells and the control agonist calcium chloride. The day before the assay, cells were plated into 96-well black-walled assay plates coated with poly-D-lysine in DMEM-F12 supplemented with 10% fetal bovine serum, 100 units penicillin/streptomycin, and 500 μM sodium pyruvate, and incubated at 37° C., 5% CO2 overnight. Prior to the assay, Calcium 5 dye (Molecular Devices) was reconstituted according to the manufacturer instructions. The reconstituted dye was diluted 1:10 in pre-warmed (37° C.) assay buffer (1×HBSS, […], […], pH 7.4 at 37° C.). The cells were incubated for 45 minutes at 37° C., 5% CO2 in 200 μL of the diluted Calcium 5 dye. Compounds were prepared as described above and the plate was read with a FLIPR Tetra (Molecular Devices). Calcium-mediated changes in fluorescence were monitored every 1 second over a 60 second time period, with the Tetra adding 25 μL of appropriate compound at the 10 second time point (excitation at 470-495 nm, detection at 515-575 nm). […]

KOR = KOR (Homo sapiens, UniProt P41145); assay: KOR calcium mobilization agonist/antagonist screen (CHO-RD-HGA16 cells); design: host or cells: CHO-RD-HGA16; conditions: single concentration; for Emax: CHO-RD-HGA16, agonist screen, control agonist U69,593; for KOR Calcium % U69, 593 Inhibition: antagonist screen, vs EC60 of U69,593
Procedure: as §2

MOR = MOR (Homo sapiens, UniProt P35372); assay: MOR calcium mobilization agonist/antagonist screen (CHO-RD-HGA16 cells); design: host or cells: CHO-RD-HGA16; conditions: single concentration; for Emax: CHO-RD-HGA16, agonist screen, control agonist DAMGO; for MOR Calcium % DAMGO Inhibition: antagonist screen, vs EC60 of DAMGO
Procedure: as §2

DOR = DOR (Homo sapiens, UniProt P41143); assay: DOR calcium mobilization agonist/antagonist screen (CHO-RD-HGA16 cells); design: host or cells: CHO-RD-HGA16; conditions: single concentration; for Emax: CHO-RD-HGA16, agonist screen, control agonist DPDPE; for DOR Calcium % DPDPE Inhibition: antagonist screen, vs EC60 of DPDPE
Procedure: as §2

T1 sequence (P61073 whole entry): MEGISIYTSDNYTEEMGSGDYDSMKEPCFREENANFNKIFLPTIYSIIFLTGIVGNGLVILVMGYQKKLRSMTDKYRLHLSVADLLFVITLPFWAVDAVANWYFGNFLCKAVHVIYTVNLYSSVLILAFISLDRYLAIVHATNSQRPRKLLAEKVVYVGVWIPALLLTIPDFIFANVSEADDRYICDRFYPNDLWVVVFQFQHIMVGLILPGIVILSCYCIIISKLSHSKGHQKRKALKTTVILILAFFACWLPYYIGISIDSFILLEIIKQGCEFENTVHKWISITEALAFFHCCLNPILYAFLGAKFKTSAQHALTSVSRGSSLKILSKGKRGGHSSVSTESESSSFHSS
T2 sequence (O95180 whole entry): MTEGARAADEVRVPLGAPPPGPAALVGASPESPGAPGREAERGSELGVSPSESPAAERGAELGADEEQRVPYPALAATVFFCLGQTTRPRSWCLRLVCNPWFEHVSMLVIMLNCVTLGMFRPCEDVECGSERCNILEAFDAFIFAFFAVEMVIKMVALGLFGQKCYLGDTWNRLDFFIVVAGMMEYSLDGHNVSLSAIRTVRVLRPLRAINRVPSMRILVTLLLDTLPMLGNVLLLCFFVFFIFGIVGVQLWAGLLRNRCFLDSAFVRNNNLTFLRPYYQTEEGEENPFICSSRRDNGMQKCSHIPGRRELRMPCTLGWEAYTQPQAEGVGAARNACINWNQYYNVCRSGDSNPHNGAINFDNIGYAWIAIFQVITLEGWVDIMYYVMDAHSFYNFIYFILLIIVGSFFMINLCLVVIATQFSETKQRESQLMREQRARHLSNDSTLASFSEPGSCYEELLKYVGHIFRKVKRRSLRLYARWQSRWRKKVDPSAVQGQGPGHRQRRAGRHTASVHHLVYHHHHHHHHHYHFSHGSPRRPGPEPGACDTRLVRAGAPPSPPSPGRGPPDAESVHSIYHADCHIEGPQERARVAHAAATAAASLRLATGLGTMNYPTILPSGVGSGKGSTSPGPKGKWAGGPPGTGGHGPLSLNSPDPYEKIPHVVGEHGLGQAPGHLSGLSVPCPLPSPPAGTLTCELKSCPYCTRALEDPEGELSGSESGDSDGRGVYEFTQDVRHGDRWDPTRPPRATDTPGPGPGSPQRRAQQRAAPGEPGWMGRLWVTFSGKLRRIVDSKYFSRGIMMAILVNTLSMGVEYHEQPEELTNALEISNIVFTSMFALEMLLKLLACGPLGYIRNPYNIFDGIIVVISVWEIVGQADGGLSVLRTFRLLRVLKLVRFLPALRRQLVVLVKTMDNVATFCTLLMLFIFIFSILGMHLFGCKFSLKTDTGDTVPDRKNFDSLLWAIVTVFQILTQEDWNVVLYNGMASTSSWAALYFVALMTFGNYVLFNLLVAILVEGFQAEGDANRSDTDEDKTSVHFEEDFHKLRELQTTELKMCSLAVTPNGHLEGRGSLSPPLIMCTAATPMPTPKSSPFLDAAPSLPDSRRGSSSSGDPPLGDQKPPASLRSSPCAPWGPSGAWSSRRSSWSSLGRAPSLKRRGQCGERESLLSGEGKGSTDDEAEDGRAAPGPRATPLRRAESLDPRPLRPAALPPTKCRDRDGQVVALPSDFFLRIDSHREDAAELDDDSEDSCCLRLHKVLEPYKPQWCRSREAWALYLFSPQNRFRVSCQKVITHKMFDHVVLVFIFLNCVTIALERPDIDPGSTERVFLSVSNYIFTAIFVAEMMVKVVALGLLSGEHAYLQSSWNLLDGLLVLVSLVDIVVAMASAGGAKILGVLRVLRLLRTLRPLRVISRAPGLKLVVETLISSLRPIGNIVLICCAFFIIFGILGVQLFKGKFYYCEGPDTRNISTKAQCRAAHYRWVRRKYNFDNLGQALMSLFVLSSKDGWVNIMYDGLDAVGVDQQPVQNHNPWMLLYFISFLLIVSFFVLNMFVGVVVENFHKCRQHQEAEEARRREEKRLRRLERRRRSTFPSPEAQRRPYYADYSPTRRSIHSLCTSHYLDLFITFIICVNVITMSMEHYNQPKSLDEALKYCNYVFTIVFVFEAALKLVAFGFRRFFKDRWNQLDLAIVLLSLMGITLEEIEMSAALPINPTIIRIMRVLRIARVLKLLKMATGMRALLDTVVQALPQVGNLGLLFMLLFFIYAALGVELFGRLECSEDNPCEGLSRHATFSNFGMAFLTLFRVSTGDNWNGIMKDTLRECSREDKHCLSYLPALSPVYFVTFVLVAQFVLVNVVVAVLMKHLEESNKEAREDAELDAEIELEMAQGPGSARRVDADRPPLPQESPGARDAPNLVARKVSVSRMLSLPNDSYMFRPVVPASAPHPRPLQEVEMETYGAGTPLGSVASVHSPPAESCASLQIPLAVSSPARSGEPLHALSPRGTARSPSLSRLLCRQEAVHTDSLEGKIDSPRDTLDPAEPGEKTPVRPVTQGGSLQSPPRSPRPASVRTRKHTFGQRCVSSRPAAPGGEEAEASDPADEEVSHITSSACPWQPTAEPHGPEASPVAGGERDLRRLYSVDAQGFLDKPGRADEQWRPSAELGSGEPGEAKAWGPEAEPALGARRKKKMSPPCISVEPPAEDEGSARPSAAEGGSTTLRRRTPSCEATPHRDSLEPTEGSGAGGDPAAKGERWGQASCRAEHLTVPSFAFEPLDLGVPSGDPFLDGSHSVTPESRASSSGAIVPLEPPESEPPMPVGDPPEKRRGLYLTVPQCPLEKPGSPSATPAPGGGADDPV
KOR, sequence (P41145 whole entry): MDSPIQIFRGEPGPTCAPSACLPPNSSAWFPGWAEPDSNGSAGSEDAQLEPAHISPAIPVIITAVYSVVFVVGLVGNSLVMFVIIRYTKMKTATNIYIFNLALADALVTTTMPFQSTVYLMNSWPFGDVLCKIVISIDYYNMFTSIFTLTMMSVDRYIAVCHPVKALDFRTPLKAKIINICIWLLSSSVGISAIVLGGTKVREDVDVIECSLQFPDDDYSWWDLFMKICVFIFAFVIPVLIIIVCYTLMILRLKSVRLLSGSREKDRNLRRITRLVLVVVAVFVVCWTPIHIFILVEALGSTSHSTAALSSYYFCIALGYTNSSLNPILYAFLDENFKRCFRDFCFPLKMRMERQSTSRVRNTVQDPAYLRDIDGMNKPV
MOR, sequence (P35372 whole entry): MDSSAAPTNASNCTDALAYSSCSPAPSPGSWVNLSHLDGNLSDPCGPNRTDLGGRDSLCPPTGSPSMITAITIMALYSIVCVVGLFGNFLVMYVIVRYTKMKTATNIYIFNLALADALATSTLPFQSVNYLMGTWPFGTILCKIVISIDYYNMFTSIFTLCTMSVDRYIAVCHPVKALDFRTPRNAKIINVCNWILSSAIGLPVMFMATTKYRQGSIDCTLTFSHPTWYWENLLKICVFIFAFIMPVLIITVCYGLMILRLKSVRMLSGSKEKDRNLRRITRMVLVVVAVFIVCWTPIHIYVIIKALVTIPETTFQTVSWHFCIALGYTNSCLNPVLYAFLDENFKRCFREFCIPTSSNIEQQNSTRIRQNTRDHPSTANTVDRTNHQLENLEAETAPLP
ACKR3, sequence (P25106 whole entry): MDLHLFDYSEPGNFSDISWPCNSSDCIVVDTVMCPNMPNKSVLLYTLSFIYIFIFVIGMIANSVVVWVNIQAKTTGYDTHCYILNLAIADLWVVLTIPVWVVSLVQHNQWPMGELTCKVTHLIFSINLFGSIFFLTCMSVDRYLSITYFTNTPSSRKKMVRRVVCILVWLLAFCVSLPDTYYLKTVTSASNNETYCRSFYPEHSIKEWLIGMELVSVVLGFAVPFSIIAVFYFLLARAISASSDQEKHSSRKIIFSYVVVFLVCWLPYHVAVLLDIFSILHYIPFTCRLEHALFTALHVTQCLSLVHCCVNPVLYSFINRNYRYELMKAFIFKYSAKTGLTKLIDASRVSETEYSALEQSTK
DOR, sequence (P41143 whole entry): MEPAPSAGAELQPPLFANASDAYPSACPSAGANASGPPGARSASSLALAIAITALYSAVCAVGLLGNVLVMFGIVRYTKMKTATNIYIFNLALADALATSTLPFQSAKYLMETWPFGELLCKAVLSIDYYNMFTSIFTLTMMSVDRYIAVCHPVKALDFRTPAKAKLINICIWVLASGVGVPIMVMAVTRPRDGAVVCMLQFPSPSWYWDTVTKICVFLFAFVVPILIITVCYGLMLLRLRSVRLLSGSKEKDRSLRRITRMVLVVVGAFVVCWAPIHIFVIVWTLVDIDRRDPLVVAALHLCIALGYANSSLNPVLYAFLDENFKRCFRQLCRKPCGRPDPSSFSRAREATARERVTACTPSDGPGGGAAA

Row | SMILES | EC50 (ACKR3) | CXCR4 β-arrestin % CXCL-12Emax (n = 2) (human CXCR4) | CaV 3.2 % CaCl2 Inhibition (CaV 3.2) | Emax (KOR) | KOR Calcium % U69, 593 Inhibition (KOR) | Emax (MOR) | MOR Calcium % DAMGO Inhibition (MOR) | Emax (DOR) | DOR Calcium % DPDPE Inhibition (DOR) | Emax (ACKR3)
1 | C/C=C1/CN2CC[C@H]1C(=O)c1[nH]c3ccc(Cl)cc3c1C2 [WW-2, (4E,5R)-10-chloro-4-ethylidene-1,4,5,7-tetrahydro-2,5-ethanoazocino[4,3-b]indol-6(3H)-one] | > 10 µM | 4% | 5% | 1% | 22% | 0% | 5% | 0% | 18% | –
2 | C/C=C1/CN2CC[C@H]1C(=O)c1[nH]c3cc(F)ccc3c1C2 [WW-3, (4E,5R)-4-ethylidene-9-fluoro-1,4,5,7-tetrahydro-2,5-ethanoazocino[4,3-b]indol-6(3H)-one] | > 10 µM | 1% | 1% | 1% | 14% | 1% | 1% | 0% | 9% | –
3 | C/C=C1/CN2CC[C@H]1C(=O)c1[nH]c3ccc(F)cc3c1C2 [WW-4, (4E,5R)-10-fluoro-4-ethylidene-1,4,5,7-tetrahydro-2,5-ethanoazocino[4,3-b]indol-6(3H)-one] | > 10 µM | 2% | 6% | 1% | 14% | 0% | 0% | 1% | 9% | –
4 | C/C=C1/CN2CC[C@H]1C(=O)c1[nH]c3ccc(OC)cc3c1C2 [WW-5, (4E,5R)-10-methoxy-4-ethylidene-1,4,5,7-tetrahydro-2,5-ethanoazocino[4,3-b]indol-6(3H)-one] | 8.15 ± 0.59 µM | 7% | 9% | 20% | 17% | 1% | 13% | 2% | 22% | 171 ± 6%
5 | CCOC(=O)c1[nH]c2ccccc2c1CN1CCC(C(=O)OC)CC1 [WW-6, ethyl 3-{[4-(methoxycarbonyl)piperidin-1-yl]methyl}-1H-indole-2-carboxylate] | > 10 µM | 7% | 19% | 0% | 22% | 0% | 11% | 0% | 1% | –
6 | C/C=C1/CN(Cc2ccc(OC)cc2)CC[C@H]1C(=O)c1cc2ccccc2[nH]1 [WW-7, (3E,4R)-(3-ethylidene-1-(4-methoxybenzyl)piperidin-4-yl)(1H-indol-2-yl)methanone] | 1.87 ± 0.096 µM | 0% | 50% | 14% | 38% | 2% | 14% | 6% | 16% | 139 ± 2%

Results, then the molecule that gave them:

Row | EC50 (ACKR3) | CXCR4 β-arrestin % CXCL-12Emax (n = 2) (human CXCR4) | CaV 3.2 % CaCl2 Inhibition (CaV 3.2) | Emax (KOR) | KOR Calcium % U69, 593 Inhibition (KOR) | Emax (MOR) | MOR Calcium % DAMGO Inhibition (MOR) | Emax (DOR) | DOR Calcium % DPDPE Inhibition (DOR) | Emax (ACKR3) | SMILES
7 | > 10 µM | 4% | −14% | 3% | 4% | 1% | 3% | 5% | 3% | – | C/C=C1/CNCC[C@H]1C(=O)c1cc2ccccc2[nH]1 [WW-8, (3E,4R)-(3-ethylidenepiperidin-4-yl)(1H-indol-2-yl)methanone]
8 | 2.07 ± 0.18 µM | 10% | 45% | 1% | 23% | 0% | 34% | 0% | 31% | 132 ± 6% | C/C=C1/CN(CCc2ccc(F)cc2)CC[C@H]1C(=O)c1cc2ccccc2[nH]1 [WW-9, [(3E,4R)-3-ethylidene-1-(4-fluorophenethyl)piperidin-4-yl](1H-indol-2-yl)methanone]
9 | > 10 µM | 2% | −3% | 7% | 8% | 1% | 0% | 4% | 5% | – | C/C=C1/CN(CC(C)C)CC[C@H]1C(=O)c1cc2ccccc2[nH]1 [WW-10, [(3E,4R)-3-ethylidene-1-(2-methylpropyl)piperidin-4-yl](1H-indol-2-yl)methanone]
10 | 3.28 ± 0.39 µM | 8% | 5% | 3% | 6% | 1% | 1% | 5% | 0% | 84 ± 6% | C/C=C1/CN(CCC)CC[C@H]1C(=O)c1cc2ccccc2[nH]1 [WW-14, [(3E,4R)-3-ethylidene-1-propylpiperidin-4-yl](1H-indol-2-yl)methanone]
11 | > 10 µM | 7% | 2% | 20% | 18% | 0% | 7% | 0% | 3% | – | CCC1CN2CC[C@H]1C(=O)c1[nH]c3ccccc3c1C2 (stereo partly drawn) [WW-15, (5R)-4-ethyl-1,4,5,7-tetrahydro-2,5-ethanoazocino[4,3-b]indol-6(3H)-one]
